# From patent US10882817B2, “Acetylsalicylic acid derivative crystal, its preparation method and use” (Zhejiang Yuejia Pharmaceuticals Co., Ltd, priority 2015, dated 2021)
# Test: Stability test of 2-(diethylamino)ethyl 2-acetoxybenzoate hydrochloride crystal
# Format: physicochemical
# Details: for pH value / Other related substances / Related substances 2-(diethylamino)ethyl-salicylate hydrochloride / Related substances Acetylsalicylic acid / Related substances Salicylic acid / Content: stored at 25° C.±2° C.; for pH value: 1.0 g sample in 50 mL water, filtrate; for Other related substances / Related substances 2-(diethylamino)ethyl-salicylate hydrochloride / Related substances Acetylsalicylic acid / Related substances Salicylic acid: HPLC; for Content: HPLC external standard method
# Protocol: The 2-(diethylamino)ethyl 2-acetoxybenzoate hydrochloride crystals obtained in Example 1 is taken and placed under the conditions of 25° C.±2° C., and sampling is carried out at month 0, month 3, month 6, month 9, and month 12, respectively, followed by the detection of the pH value, related substances and their contents. In the process, the pH value is obtained by taking about 1.0 g of a sample, adding 50 mL of water, shaking for 10 minutes, filtration, taking 10 mL of a subsequent filtrate and detection with a pH meter; and the related substances and the contents are both detected by high performance liquid chromatography (an external standard method).
smiles,measurement,setting,value
CCN(CC)CCOC(=O)c1ccccc1OC(C)=O.Cl [2-(diethylamino)ethyl 2-acetoxybenzoate hydrochloride],stability,after having been stored at 25° C.±2° C. for 12 months,very good stability
same,pH value,Month 0,4.82
same,Other related substances,Month 0,Not detected
same,Related substances 2-(diethylamino)ethyl-salicylate hydrochloride,Month 0,0.58%
same,Related substances Acetylsalicylic acid,Month 0,0.0059%
same,Related substances Salicylic acid,Month 0,Not detected
same,Content,Month 0,99.58%
same,pH value,Month 3,4.83
same,Other related substances,Month 3,Not detected
same,Related substances 2-(diethylamino)ethyl-salicylate hydrochloride,Month 3,0.65%
same,Related substances Acetylsalicylic acid,Month 3,0.0063%
same,Related substances Salicylic acid,Month 3,0.00254%
same,Content,Month 3,99.51%
same,pH value,Month 6,4.81
same,Other related substances,Month 6,Not detected
same,Related substances 2-(diethylamino)ethyl-salicylate hydrochloride,Month 6,0.58%
same,Related substances Acetylsalicylic acid,Month 6,0.0070%
same,Related substances Salicylic acid,Month 6,0.00101%
same,Content,Month 6,99.59%
same,pH value,Month 9,4.79
same,Other related substances,Month 9,Not detected
same,Related substances 2-(diethylamino)ethyl-salicylate hydrochloride,Month 9,0.60%
same,Related substances Acetylsalicylic acid,Month 9,0.0048%
same,Related substances Salicylic acid,Month 9,0.00083%
same,Content,Month 9,99.57%
same,pH value,Month 12,4.83
same,Other related substances,Month 12,Not detected
same,Related substances 2-(diethylamino)ethyl-salicylate hydrochloride,Month 12,0.62%
same,Related substances Acetylsalicylic acid,Month 12,0.0053%
same,Related substances Salicylic acid,Month 12,0.00103%
same,Content,Month 12,99.58%
